Here are results for 2 compounds from US8425968B2, “Beverage preservative system containing pimaricin-cyclodextrin complex” (PepsiCo., Inc., priority 2009, dated 2013).

≈ marks a conversion by molar mass, not a printed value.

Data set [1] concerns Aspergillus (Pepsi Isolate). Briefly: 16 week mold spore challenge MIC in beverage. The data set is classed as cell-based, Aspergillus niger. The conditions noted are these: pH 3.4, read-out: 16 week incubation MIC (ppm). From the text:
(§1) A 2% fruit juice based non-carbonated beverage of pH 3.4 and about 12 Brix was formed by combining the following ingredients.
(§2) The preparation of beverage was divided into two aliquots.
(§3) Each of 24 such preparations was then divided equally across 8 separate tubes making for 192 samples. […] The tubes were sealed in a manner that prohibits moisture evaporation.
(§4) The mold spores employed were obtained from the following organisms. Aspgergillus niger isolate of Pepsi; ATCC strain 90900 (Talaromyces spectabilis), ATCC strain 48441 (Pencillium galbrum), ATCC 24088 (Byssochlamys fulva), ATCC 96468 (Neosartorva fischeri) ATCC strain 96463 (Talaromyces flavus) and ATCC strain ATCC 10512 (Talaromyces flavus var. flavus). Each spore type was present at 20 spores per milliliter.

Data set [2] deals with Penicillium glabrum ATCC 48441. In words: 16 week mold spore challenge MIC in beverage. In kind it is cell-based. The following applies: ATCC48441, pH 3.4, read-out: 16 week incubation MIC (ppm).
Excerpt: as §1, §2, §3, §4

Data set [3] has as its system Talaromyces spectabilis ATCC 90900. In words: 16 week mold spore challenge MIC in beverage. In kind it is cell-based. The following applies: Paecilomyces variotii, ATCC90900, pH 3.4; read-out: 16 week incubation MIC (ppm).
Excerpt: as §1, §2, §3, §4

Data set [4] has as its system Byssochlamys fulva ATCC 24088. Briefly: 16 week mold spore challenge MIC in beverage. The data set is classed as cell-based. The following applies: Paecilomyces fulvus, ATCC 10099 / ATCC 24088, pH 3.4; read-out: 16 week incubation MIC (ppm).
Excerpt: as §2, §3, §4
(§5) The second aliquot of beverage is identical to the 1st aliquot except for the presence of cyclodextrin-pimaricin complex. […] Each of 36 such preparations was then divided equally across 8 separate tubes making for 288 samples. […] The tubes were sealed in a manner that prohibits moisture evaporation.
(§6) The mold spores employed were obtained from the following organisms Paecilomyces puntoni (Pepsi isolate D3), ATCC 36614 (Byssochlamys nieva) ATCC 24088 (Byssochlamys fulva), ATCC 96468 (Neosartorya fischeri) ATCC strain 96463 (Talaromyces flavus) and ATCC strain ATCC 10512 (Talaromyces flavus var. flavus). Each spore type was present initially at 20 spores per milliliter of product. Spores for Byssochlamys nieva were developed at both 25° C. on Potato Dextrose and 30° C. on Malt Extract in order to ensure some variation in the ratio of asci (ascospores) to conidiospores. […]
(§7) One sample remained un-inoculated and served as a negative control. […] These samples served as the positive controls in this test. […]
(§8) After inoculation with spores from various mold, samples were incubated at 25-27° C. for a period of 16 weeks before.
(§9) As outlined previously, two separate aliquots of beverage were formulated, one containing Pimaricin in complex with g-cyclodextrin and one without. Both aliquots contained 30 ppm Cinnamic acid.

Data set [5] concerns Neosartorya fischeri ATCC 96468. In words: 16 week mold spore challenge MIC in beverage. The conditions noted are these: Aspergillus fischeri, ATCC96468, pH 3.4; read-out: 16 week incubation MIC (ppm). The data set is classed as cell-based.
Excerpt: as §2, §3, §4, §5, §6, §7, §8, §9

Data set [6] deals with Talaromyces flavus ATCC 96463. Briefly: 16 week mold spore challenge MIC in beverage. The data set is classed as cell-based. The conditions noted are these: ATCC96463, pH 3.4, read-out: 16 week incubation MIC (ppm).
Excerpt: as §2, §3, §4, §5, §6, §7, §8, §9

In data set [7] the test system is Talaromyces flavus var. flavus ATCC 10512. In words: 16 week mold spore challenge MIC in beverage. The following applies: ATCC10512, pH 3.4, read-out: 16 week incubation MIC (ppm). The data set is classed as cell-based.
Excerpt: as §2, §3, §4, §5, §6, §7, §8, §9

The next data set in a line: physchem. The data set is classed as physicochemical.
Data set [8] concerns bio-indicator mold. In words: Preservation of beverage for 16 weeks against the array of bio-indicator / spoilage organisms. In kind it is cell-based.
Excerpt: As used herein, the terms “preserve,” “preservative,” and “preservation” refer to a food or beverage product protected against or a composition able to stop or completely prevent spoilage of a product that is the result of the growth of spoilage microorganisms for a period of at least 16 weeks. This period is in keeping with the time required to transport a beverage product from location of manufacture, through distribution channels, into the hand of the consumer. Absence of spoilage is noted by absence any evidence of growth of spoilage organisms (turbidity, viable count, direct microscopic count or other standard methods of enumeration) and by the absence of any discernable change in the product attributes that could be routinely attributed to metabolism of spoilage organisms.
as §3, §5
An apple juice based beverage was prepared to contain 30 ppm EDTA (0.003%) as shown below. The beverage was divided into two aliquots. […]

For data set [9] the following is noted: 25° C., pH approximately 6.4; cited from earlier work.
For data set [10] the following is noted: purportedly; cited from earlier work.
The subject of data set [11] is bio-indicator mold. The conditions noted are these: reported by the manufacturer of DMDC; cited from earlier work.

Consider `CC1O[C@@H](O[C@H]2/C=C/C=C/C=C/C=C/C[C@@H](C)OC(=O)/C=C/[C@H]3O[C@@H]3C[C@H](O)C[C@]3(O)C[C@H](O)[C@@H](C(=O)O)[C@H](C2)O3)C(O)C(N)[C@@H]1O` (stereo partly drawn) [Pimaricin], for which the minimum inhibitory concentration (MIC) (in general, the lowest concentration found to suppress growth) in [1] was 18.4 mg/L (≈ 27.6 µM); in data set [2] it was 5.7 mg/L (≈ 8.56 µM); in data set [3] it was 10.3 mg/L (≈ 15.5 µM); in [4] it was 16.9 mg/L (≈ 25.4 µM); in data set [5], > 20 mg/L; in data set [6], > 20 mg/L. The MIC in data set [7] is > 20 mg/L. Besides, the concentration in solution in the data set “physchem” (4 °C, pH 3.4, aqueous buffer, thermodynamic from solid) (solubility) came to 0.01 mg/mL (≈ 15 µM). The solubility – broadly, the dissolved amount per volume that the medium holds – at 24 h in “physchem” (25 °C, pH 3.4, aqueous buffer, thermodynamic from solid) amounted to 0.02 mg/mL (≈ 30 µM). For the same compound, the “solubility limit in high acid beverage” value in “physchem” (pH 3.4) is listed as ~10 ppm. Further, in the data set with bio-indicator mold [8] (20.0 ppm un-complexed Pimaricin, apple juice beverage pH 3.4), the “mold able to grow at highest concentration in solution” value is > 50%. Besides, the “minimum initial stand alone concentration needed to preserve product for 16 weeks” value in the data set on bio-indicator mold [8] (stand alone) stood at 400 mg pimaricin per liter. Further, the “solubility in pure water” value in data set [9] is 0.052 mg/mL (≈ 78.1 µM). For the same compound, the “pKa of carboxylic acid group” value in [10] was ~6.5.
For the compound `COC(=O)OC(=O)OC` [DMDC, Dimethyl dicarbonate], the “concentration required to stabilize beverage for 16 weeks against vegetative yeast, mold and bacteria” value in the data set with bio-indicator mold [11] is listed as “at least 250 mg/liter”.
